Laboratory results from PubChem BioAssay (NCI).
Where “and” joins values, the source holds several entries; their conditions need not be identical. Identical values can stand only once.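 Grown in 96-well plates, cells were treated for 48 hours with each compound at five concentrations. Insufficient inhibition: endpoint recorded as highest concentration tested. The concentration for 50% growth inhibition is given as GI50. TGI: concentration producing complete growth inhibition.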

Experiments:
Assay in all cases: inhibition of tumour cell growth, NCI panel, 48 h
SW-620 colon = system: SW-620 colon
EKVX NSCLC = system: EKVX NSCLC
HT29 colon = system: HT29 colon
UACC-62 melanoma = system: UACC-62 melanoma
SF-268 CNS = system: SF-268 CNS
LOX IMVI melanoma = system: LOX IMVI melanoma
NCI-H23 lung = system: NCI-H23 lung
OVCAR-3 ovarian = system: OVCAR-3 ovarian
ACHN renal = system: ACHN renal
SK-OV-3 ovarian = system: SK-OV-3 ovarian

Structure (SMILES) | TGI (SW-620 colon) [µM] | TGI (EKVX NSCLC) [µM] | TGI (HT29 colon) | TGI (UACC-62 melanoma) | TGI (SF-268 CNS) | TGI (LOX IMVI melanoma) | TGI (NCI-H23 lung) | TGI (OVCAR-3 ovarian) | TGI (ACHN renal) [µM] | TGI (SK-OV-3 ovarian) [µM] | GI50 (SW-620 colon) [µM] | GI50 (EKVX NSCLC) [µM] | GI50 (SK-OV-3 ovarian) | GI50 (HT29 colon) [µM] | GI50 (UACC-62 melanoma) [µM] | GI50 (SF-268 CNS) [µM] | GI50 (LOX IMVI melanoma) [µM] | GI50 (NCI-H23 lung) | GI50 (OVCAR-3 ovarian) [µM] | GI50 (ACHN renal) [µM]
O=C1NC2(C=Cc3c(ccc4ccccc34)O2)Oc2ccccc21 (stereo not given) | > 100 | 82.3 | 30.3 µM | > 100 µM | 58.3 µM | 39.9 µM | 92.3 µM | 59.8 µM | 77.7 |  |  |  |  |  |  |  |  |  |  | 
CN1C(=O)N(C)C2(CCN(CCCCCCF)CC2)C1=O | > 100 | > 100 | > 100 µM | > 100 µM | > 100 µM | > 100 µM | > 100 µM | > 100 µM | > 100 | > 100 |  |  |  |  |  |  |  |  |  | 
CN(C)CCNc1nc2c(no[n+]2[O-])c2ccccc12 | 46 | 73.9 | > 100 µM | 41.4 µM | > 100 µM | 35.1 µM | > 100 µM | 71.7 µM | 40.4 | 98.8 |  |  |  |  |  |  |  |  |  | 
COc1ccc2[nH]c(O)c(/C=c3/cc4c(c(-c5ccc(F)cc5)n3)=Nc3ccccc3-4)c2c1 | 3.89 | > 100 | 3.85 µM | 3.2 µM | 43.8 µM | 3.2 µM | 10.9 µM | 3.24 µM | 22.5 | 33.8 | 1.85 | 23.2 | 17.2 µM | 1.94 | 1.54 | 5.43 | 1.64 | 2.58 µM | 1.82 | 10.3
CC1(C)c2ccccc2C(O)C12CCC(=O)CC2 (stereo not given) | > 100 | > 100 | > 100 µM | > 100 µM | > 100 µM | > 100 µM | > 100 µM | > 100 µM | > 100 | > 100 |  |  |  |  |  |  |  |  |  | 
O=P1(c2ccccc2)C2=CCC=CC2C(c2ccccc2)N1Cc1ccccc1 (stereo not given) | 43 | 28.7 | 24.2 µM | 21.7 µM | 30.9 µM |  | 24.8 µM |  | 30.4 | 31 |  |  |  |  |  |  |  |  |  | 
CCC1(O)CC(OC2CC(N(C)C)C(OC3CC(O)C(OC4CCC(=O)C(C)O4)C(C)O3)C(C)O2)c2c(O)c3c(c(O)c2C1C(=O)OC)C(=O)c1cccc(O)c1C3=O (stereo not given) | 0.0394 |  | 0.103 µM and 0.0147 µM | 0.0235 µM | 0.32 µM and 0.973 µM |  | 0.112 µM and 0.031 µM | 10.3 µM |  |  |  |  |  |  |  |  |  |  |  | 
CCCCCCCCCCSCC(CO)NC(=O)/C=C/c1c(C)[nH]c(=O)[nH]c1=O (stereo not given) | > 50 | > 42.3 | > 50 µM | 7.71 µM and 9.48 µM | 10.2 µM and > 21.4 µM | 23.8 µM and > 50 µM | 14.3 µM and > 50 µM | 3.05 µM and 9.12 µM |  | > 50 |  |  | 1.82 µM and 7.04 µM |  |  | 0.895 |  | 1.76 µM and 5.54 µM |  | 
COc1cc2c(c(OC)c1OC)-c1ccc(SC)cc1C(=O)CC2 | > 100 | > 100 | < 0.01 µM | > 100 µM |  | > 100 µM | > 100 µM | > 100 µM | > 100 | < 0.01 |  |  |  |  |  |  |  |  |  | 
CC(=O)O[C@H]1CC[C@H]2[C@@H]3CCC(C(C)=O)[C@H](C(=O)O)[C@H]3CC[C@]12C (stereo not given in full) | > 100 | > 100 | > 100 µM | > 100 µM | > 100 µM |  | > 100 µM | > 100 µM |  | > 100 |  |  |  |  |  |  |  |  |  | 
CC1(C)C2CCC(N)(C2)C1O (stereo not given) | > 100 | > 100 |  | > 100 µM |  | > 100 µM | > 100 µM | > 100 µM | > 100 | > 100 |  |  |  |  |  |  |  |  |  | 
Cc1ccc2c(=O)c(-c3n[nH]c(=S)s3)c[nH]c2n1 | > 100 | > 100 | > 100 µM | > 100 µM | > 100 µM | > 100 µM | > 100 µM | > 100 µM | > 100 |  |  |  |  |  |  |  |  |  |  | 
CN(CCO)/N=N/c1[nH]ncc1C(N)=O | > 100 | > 100 | > 100 µM | > 100 µM | > 100 µM | > 100 µM | > 100 µM | > 100 µM |  | > 100 |  |  |  |  |  |  |  |  |  | 
CN1B(c2ccccc2)N(C)C(=O)N(C)C1=O | > 100 | > 100 | > 100 µM | > 100 µM | > 100 µM |  | > 100 µM |  | > 100 | > 100 |  |  |  |  |  |  |  |  |  | 
COc1ccccc1N=C1SCCN1C(=S)Nc1ccc(S(=O)(=O)/N=C/N(C)C)cc1 | > 100 | 63.2 |  | 75.9 µM | 55.2 µM | > 100 µM | 95.9 µM | > 100 µM | > 100 | > 100 |  |  |  |  |  |  |  |  |  | 
O=[N+]([O-])c1cc(Cl)ccc1S(=O)(=O)N1CCCc2cc(Cl)ccc21 | > 100 | > 100 | > 100 µM | > 100 µM | > 100 µM | > 100 µM |  | > 100 µM | > 100 | > 100 |  |  |  |  |  |  |  |  |  | 
CSC1=C(C(=O)Nc2ccccc2)C(N)=NC1=O | > 100 | > 100 | > 100 µM | > 100 µM | > 100 µM | > 100 µM | > 100 µM |  |  | > 100 |  |  |  |  |  |  |  |  |  | 
CCOC(=O)CC[C@H](N)C(=O)N[C@H](Cc1ccc(N(CCCl)CCCl)cc1)C(=O)OCC | 14.1 | 19.1 | 13.3 µM |  | 11.3 µM | > 39.1 µM | 4.29 µM | 10.1 µM | 2.68 | 11.7 |  |  |  |  |  |  |  |  |  | 0.499
c1ccc(C2[C@@H]3CCCc4ccccc4C3=NN2c2ccccc2)cc1 (stereo not given in full) | > 100 | > 100 | > 100 µM |  | > 100 µM | > 100 µM | > 100 µM | > 100 µM | > 100 |  |  |  |  |  |  |  |  |  |  | 
CC(C)c1cccc(C(C)C)c1OS(=O)(=O)NC(=O)OC(C(F)(F)F)C(F)(F)F | > 100 | > 100 |  |  | > 100 µM | > 100 µM | > 100 µM |  | > 100 | > 100 |  |  |  |  |  |  |  |  |  | 
COc1ccc(N2C(=O)C3CC4=CC(=O)C[C@H]4[C@H]32)cc1 (stereo not given in full) | > 100 |  |  | > 100 µM | > 100 µM | > 100 µM | > 100 µM | > 100 µM | > 100 | > 100 |  |  |  |  |  |  |  |  |  | 
